Legend:
Conditions in all cases: 20-22 d
[1] = test system: TRZAS = Triticum aestivum (spring wheat); experiment: Postemergence herbicidal safening, greenhouse, visual injury; format: in vivo
Method: (§1) Seeds of the desired test plant species were planted in Sun Gro MetroMix® 306 planting mixture, which typically has a pH of 6.0 to 6.8 and an organic matter content of about 30 percent, in plastic pots with a surface area of 103.2 square centimeters (cm^2). When required to ensure good germination and healthy plants, a fungicide treatment and/or other chemical or physical treatment was applied. The plants were grown for 7-36 days (d) in a greenhouse with an approximate […] photoperiod which was maintained at about 18° C. during the day and 17° C. during the night. Nutrients and water were added on a regular basis and supplemental lighting was provided with overhead metal halide 1000-Watt lamps as necessary. The plants were employed for testing when they reached the second or third true leaf stage.
(§2) Weighed amounts of esters (methyl) or salts (TEA [triethylammonium], potassium [K]) of 4-amino-3-chloro-6-(4-chloro-2-fluoro-3-methoxyphenyl)pyridine-2-carboxylic acid (Compound 1) were dissolved in a volume of 97:3 volume/volume (v/v) acetone/dimethylsulfoxide (DMSO) to obtain stock solutions. […] The concentrated stock solutions were diluted with an aqueous mixture of 1.5% v/v of Agri-dex crop oil concentrate to provide the appropriate application rates. Compound requirements are based upon a 12 mL application volume at a rate of 187 liters per hectare (L/ha). Stocks solutions of the safeners were prepared following the same procedure. Spray solutions of the safeners and experimental compound mixtures were prepared by adding the appropriate volume of both stock solutions to the appropriate amount of dilution solution to form a 12 mL spray solution with active ingredients in two-way combinations. Formulated compounds were applied to the plant material with an overhead Mandel track sprayer equipped with 8002E nozzles calibrated to deliver 187 L/ha over an application area of 0.503 square meters (m^2) at a spray height of 18 inches (43 centimeters (cm)) above average plant canopy. Control plants were sprayed in the same manner with the solvent blank.
(§3) The treated plants and control plants were placed in a greenhouse as described above and watered by sub-irrigation to prevent wash-off of the test compounds. After 20-22 d, the condition of the test plants as compared with that of the control plants was determined visually and scored on a scale of 0 to 100 percent where 0 corresponds to no injury and 100 corresponds to complete kill.
(§4) Colby's equation was used to determine the herbicidal effects expected from the mixtures (Colby, S. R., Calculation of the synergistic and antagonistic response of herbicide combinations. Weeds 1967, 15, 20-22.).
(§5) The following equation was used to calculate the expected activity of mixtures containing two active ingredients, A and B: Expected=A+B−(A×B/100)
(§6) A=observed efficacy of active ingredient A at the same concentration as used in the mixture.
(§7) B=observed efficacy of active ingredient B at the same concentration as used in the mixture.

[2] = test system: HORVS = Hordeum vulgare (spring barley); experiment: as above; format: in vivo
Method: as §1, §2, §3, §4, §5, §6, §7

PAPRH (corn poppy) = experiment: Postemergence herbicidal activity, greenhouse, visual injury; format: in vivo, Papaver rhoeas
Method: as §1, §2, §3, §4, §5, §6, §7

[3] = test system: LAMPU (purple deadnettle); experiment: as above; format: in vivo, Lamium purpureum
Method: as §1, §2, §3, §4, §5, §6, §7

O=C(O)COc1ccc(Cl)c2cccnc12 [Cloquintocet-acid, [(5-chloro-8-quinolinyl)oxy]acetic acid]
0%: TRZAS Ob (observed injury) ([1]; applied alone at 0.55 g/ha) | TRZAS Ob (observed injury) ([1]; applied alone at 1.1 g/ha) | TRZAS Ob (observed injury) ([1]; applied alone at 2.2 g/ha) | TRZAS Ob (observed injury) ([1]; applied alone at 4.4 g/ha) | HORVS Ob (observed injury) ([2]; applied alone at 0.55 g/ha) | HORVS Ob (observed injury) ([2]; applied alone at 1.1 g/ha) | HORVS Ob (observed injury) ([2]; applied alone at 2.2 g/ha) | HORVS Ob (observed injury) ([2]; applied alone at 4.4 g/ha) | PAPRH Ob (observed injury) (PAPRH (corn poppy); applied alone at 0.55 g/ha) | PAPRH Ob (observed injury) (PAPRH (corn poppy); applied alone at 1.1 g/ha) | PAPRH Ob (observed injury) (PAPRH (corn poppy); applied alone at 2.2 g/ha) | PAPRH Ob (observed injury) (PAPRH (corn poppy); applied alone at 4.4 g/ha) | LAMPU Ob (observed injury) ([3]; applied alone at 0.55 g/ha) | LAMPU Ob (observed injury) ([3]; applied alone at 1.1 g/ha) | LAMPU Ob (observed injury) ([3]; applied alone at 2.2 g/ha) | LAMPU Ob (observed injury) ([3]; applied alone at 4.4 g/ha)
